Assays:
[1] = system: mouse-derived metastatic breast cancer cells Jyg-MC(B); assay: Mouse natural metastasis model (Test Example 12); assay type: in vivo
Excerpt: In general, the metastasis process follows the course of primary tumor formation, invasion of blood vessels and lymphatic vessels, and fixation and proliferation to lung. Here, the model prepared in Test Example 2 verifies only kinetics of tumor cells after entry into the blood vessel, and the metastasis phenomenon occurring in the actual clinical example also includes other processes in addition to invasion of blood vessels and lymphatic vessels from the primary tumor. Thereupon, in this test example, a subcutaneous tumor (a primary tumor) was generated in a mouse, and a model in which the tumor cells metastasized to lung following all metastasis processes (a natural metastasis model) was prepared.
Specifically, to start with, in order to prepare a natural metastasis model, a nude mouse (BALBc nu/nu, female, 4 weeks old, purchased from Japan SLC) was subcutaneously inoculated with mouse-derived metastatic breast cancer cells Jyg-MC(B). After 24 days of incubation, neopetasin (NP) was administered intraperitoneally at a dose of 50 mg/kg and treated a total of 6 times for 16 days (inoculation at 0, 2, 4, 6, 10, 14 days, respectively). Note that treatment procedure at this time is illustrated in FIG. 13.

[2] = system: KMeC cells (canine malignant melanoma cells); assay: Western blotting of cancer-related proteins, KMeC cells (Test Example 10); assay type: cell-based; conditions: 3 µM, 56 hours
Procedure: KMeC cells (canine malignant melanoma cells) were obtained from the Veterinary Surgery Laboratory, Graduate School of Agricultural and Life Sciences, the University of Tokyo. KMeC cells were cultured in an incubator (air/CO2 = 95/5 (v/v)) at 37° C. using RPMI1640 medium.
To start with, each cell was seeded at 0.5×10^5 cells/mL in a six-well plate, and after 24 hours of seeding, neopetasin (final concentration: 3 µM) was suspended in a medium and incubated for 56 hours. […] thus treated with neopetasin (3 µM) for 56 hours were recovered with a cell scraper. Furthermore, DMSO was administered to the negative control section, and the same experiment was performed.
Next, the cells were homogenized in ice-cold lysis buffer (10 mM Tris-HCl (pH 7.4), 1% (w/v) NP-40, 0.1% (w/v) deoxycholic acid, 0.1% (w/v) SDS, 150 mM NaCl, 1 mM EDTA, and 1% (w/v) protease inhibitor cocktail (Sigma-Aldrich) and allowed to stand on ice for 20 minutes. The homogenate was centrifuged at 13,000 rpm for 20 minutes (4° C.), and then the supernatant was collected as a sample for Western blotting. The protein content in the sample was measured using a DC protein assay kit (manufactured by Bio-Rad Laboratories, Inc.). A sample (protein amount of 5 µg) was separated by SDS-PAGE using 10.0 or 12.5% (w/v) polyacrylamide gel, and transferred to a PVDF membrane (PerkinElmer Life Science Co., Ltd). […]

[3] = 50 mg/kg intraperitoneally, 6 times for 16 days

## C=C(C)[C@H]1C[C@@]2(C)C(=CC1=O)CC[C@@H](OC(=O)/C(C)=C\C)[C@@H]2C [Neopetasin, neopetasin]
[1]; [3]
  lung metastasis lesions: significant decrease in lung metastasis lesions
  lymph node metastasis (weight of the axillary lymph node): exhibits an inhibitory effect on lymph node metastasis
[1]; excluding examples without lymph node swelling
  degree and weight of lymph node swelling: decreased
[2]
  expression of cancer-related molecules: inhibit a wide range of cancer-related molecules
